In patent US11053204B2, “Pyrimidinyloxy benzene derivatives as herbicides” (FMC Corporation, priority 2015, dated 2021):

How the values were obtained:
Assay type in all cases: in vivo
[1] = test system: Italian ryegrass (Lolium multiflorum); experiment: Test A postemergence, visual injury rating
In short: (§1)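 Pre- and postemergence greenhouse screen. Soil: loam + sand. Spray carrier: solvent mixture, non-phytotoxic, with surfactant. Post timing at 1–2 leaves, height 2–10 cm. Readout: visual injury on a 0–100 scale roughly 10 days after application, untreated plants as reference.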

[2] = test system: barnyardgrass (Echinochloa crus-galli); experiment: Test A postemergence, visual injury rating; conditions: 0 to 100 scale, 0 is no effect, 100 is complete control, approximately 10 days
In short: as §1

[3] = test system: blackgrass (Alopecurus myosuroides); experiment: Test A postemergence, visual injury rating
In short: as §1

corn (Zea mays) = experiment: Test A postemergence, visual injury rating
In short: as §1

[4] = test system: galium (catchweed bedstraw, Galium aparine); experiment: Test A postemergence, visual injury rating
In short: as §1

[5] = test system: giant foxtail (Setaria faberii); experiment: Test A postemergence, visual injury rating
In short: as §1

kochia (Kochia scoparia) = experiment: Test A postemergence, visual injury rating
In short: as §1

[6] = test system: pigweed (Amaranthus retroflexus); experiment: Test A postemergence, visual injury rating
In short: as §1

[7] = test system: ragweed (common ragweed, Ambrosia elatior); experiment: Test A postemergence, visual injury rating
In short: as §1

[8] = test system: wheat (Triticum aestivum); experiment: Test A postemergence, visual injury rating
In short: as §1

[9] = test system: barnyardgrass (Echinochloa crus-galli); experiment: Test B flooded paddy test, plant response rating; conditions: 250 g ai/ha; Flood; scale of 0 to 100 where 0 is no effect and 100 is complete control; 13 to 15 days
In short: (§2)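 Greenhouse pots flooded to 3 cm above soil at time of treatment received compound via the water, which stayed at that level.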

[10] = test system: ducksalad (Heteranthera limosa); experiment: Test B flooded paddy test, plant response rating; conditions: 250 g ai/ha; Flood; scale of 0 to 100 where 0 is no effect and 100 is complete control; 13 to 15 days
In short: as §2

rice (Oryza sativa) = experiment: Test B flooded paddy test, plant response rating; conditions: 250 g ai/ha; Flood; scale of 0 to 100 where 0 is no effect and 100 is complete control; 13 to 15 days
In short: as §2

[11] = test system: sedge, umbrella (small-flower umbrella sedge, Cyperus difformis); experiment: Test B flooded paddy test, plant response rating; conditions: 250 g ai/ha; Flood; scale of 0 to 100 where 0 is no effect and 100 is complete control; 13 to 15 days
In short: as §2

[12] = test system: johnsongrass (Sorghum halepense); experiment: Test C postemergence, plant response rating; conditions: for Johnsongrass plant response rating: scale 0 to 100 (0 no effect, 100 complete control)
In short: (§3)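 Greenhouse plants rated visually against untreated controls 13–15 d after treatment, scale 0 = no effect to 100 = complete control. Postemergence sprays went onto potted plants 2–18 cm tall (1–4 leaves); preemergence sprays onto soil freshly sown in loam–sand or silt loam, chemicals formulated in non-phytotoxic solvent with surfactant.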

[13] = test system: surinam grass (Brachiaria decumbens); experiment: Test C postemergence, plant response rating; conditions: for Surinam Grass plant response rating: 125 g ai/ha, scale 0 to 100 (0 no effect, 100 complete control)
In short: as §3

[14] = test system: wild poinsettia (Euphorbia heterophylla); experiment: Test C postemergence, plant response rating; conditions: for Poinsettia, Wild plant response rating: scale 0 to 100 (0 no effect, 100 complete control)
In short: as §3

[15] = 31 g ai/ha, 0 to 100 scale, 0 is no effect, 100 is complete control, approximately 10 days
[16] = 125 g ai/ha, 0 to 100 scale, 0 is no effect, 100 is complete control, approximately 10 days
[17] = 31 g ai/ha, 0 to 100 scale (0 no effect, 100 complete control)

O=C(CCC(F)(F)C(F)(F)F)c1c(Br)cccc1Oc1ncc(Cl)cn1 [Compound 110]
Ryegrass, Italian plant response rating [1, 15]: 0 | Ryegrass, Italian plant response rating [1, 16]: 20 | Barnyardgrass plant response rating ([2]; 31 g ai/ha): 30 | Barnyardgrass plant response rating ([2]; 125 g ai/ha): 60 | Blackgrass plant response rating [3, 15]: 0 | Blackgrass plant response rating [3, 16]: 50 | Corn plant response rating (corn (Zea mays); [15]): 20 | Corn plant response rating (corn (Zea mays); [16]): 50 | Galium plant response rating [4, 15]: 70 | Galium plant response rating [4, 16]: 100 | Foxtail, Giant plant response rating [5, 15]: 30 | Foxtail, Giant plant response rating [5, 16]: 90 | Kochia plant response rating (kochia (Kochia scoparia); [15]): 100 | Kochia plant response rating (kochia (Kochia scoparia); [16]): 100 | Pigweed plant response rating [6, 15]: 90 | Pigweed plant response rating [6, 16]: 100 | Ragweed plant response rating [7, 15]: 0 | Ragweed plant response rating [7, 16]: 0 | Wheat plant response rating [8, 15]: 0 | Wheat plant response rating [8, 16]: 20 | Plant response rating, Barnyardgrass [9]: 25 | Plant response rating, Ducksalad [10]: 75 | Plant response rating, Rice (rice (Oryza sativa)): 25 | Plant response rating, Sedge, Umbrella [11]: 90 | Plant response rating, Johnsongrass ([12]; 16 g ai/ha, scale of 0 to 100): 5 | Plant response rating, Johnsongrass ([12]; 31 g ai/ha, scale 0 to 100): 10 | Johnsongrass plant response rating ([12]; 62 g ai/ha): 10 | Johnsongrass plant response rating ([12]; 125 g ai/ha): 15 | Plant response rating, Surinam Grass ([13]; 16 g ai/ha, scale of 0 to 100): 15 | Plant response rating, Surinam Grass ([13]; 31 g ai/ha, scale 0 to 100): 20 | Surinam Grass plant response rating [13]: 25 | Plant response rating, Poinsettia, Wild ([14]; 16 g ai/ha, scale of 0 to 100): 40 | Plant response rating, Poinsettia, Wild ([14]; 31 g ai/ha, scale 0 to 100): 65 | Poinsettia, Wild plant response rating ([14]; 62 g ai/ha): 80 | Poinsettia, Wild plant response rating ([14]; 125 g ai/ha): 90

FC(F)(F)CCCCc1c(Cl)cccc1Oc1ncc(Cl)cn1 [Compound 137]
Ryegrass, Italian plant response rating [1, 17]: 10 | Ryegrass, Italian plant response rating [1, 16]: 30 | Barnyardgrass plant response rating ([2]; 31 g ai/ha): 20 | Barnyardgrass plant response rating ([2]; 125 g ai/ha): 60 | Blackgrass plant response rating [3, 17]: 10 | Blackgrass plant response rating [3, 16]: 30 | Corn plant response rating (corn (Zea mays); [17]): 10 | Corn plant response rating (corn (Zea mays); [16]): 10 | Galium plant response rating [4, 17]: 40 | Galium plant response rating [4, 16]: 100 | Foxtail, Giant plant response rating [5, 17]: 10 | Foxtail, Giant plant response rating [5, 16]: 60 | Kochia plant response rating (kochia (Kochia scoparia); [17]): 90 | Kochia plant response rating (kochia (Kochia scoparia); [16]): 100 | Pigweed plant response rating [6, 17]: 80 | Pigweed plant response rating [6, 16]: 100 | Ragweed plant response rating [7, 17]: 10 | Ragweed plant response rating [7, 16]: 40 | Wheat plant response rating [8, 17]: 0 | Wheat plant response rating [8, 16]: 10 | Plant response rating, Barnyardgrass [9]: 75 | Plant response rating, Ducksalad [10]: 95 | Plant response rating, Rice (rice (Oryza sativa)): 50 | Plant response rating, Sedge, Umbrella [11]: 95 | Plant response rating, Johnsongrass ([12]; 16 g ai/ha, scale of 0 to 100): 5 | Plant response rating, Johnsongrass ([12]; 31 g ai/ha, scale 0 to 100): 10 | Johnsongrass plant response rating ([12]; 62 g ai/ha): 10 | Johnsongrass plant response rating ([12]; 125 g ai/ha): 25 | Plant response rating, Surinam Grass ([13]; 16 g ai/ha, scale of 0 to 100): 5 | Plant response rating, Surinam Grass ([13]; 31 g ai/ha, scale 0 to 100): 10 | Surinam Grass plant response rating [13]: 20 | Plant response rating, Poinsettia, Wild ([14]; 16 g ai/ha, scale of 0 to 100): 15 | Plant response rating, Poinsettia, Wild ([14]; 31 g ai/ha, scale 0 to 100): 65 | Poinsettia, Wild plant response rating ([14]; 62 g ai/ha): 65 | Poinsettia, Wild plant response rating ([14]; 125 g ai/ha): 75
